In paper PMC6158709, “Chemical genetic inhibition of DEAD-box proteins using covalent complementarity” (Nucleic Acids Research, 2018):

Key:
DDX3 (132-607) = target: T1, DDX3 (132-607) (Homo sapiens, UniProt O00571); assay: coupled ATPase assay, RNA-dependent; format: biochemical; conditions: duplex RNA; four ATP concentrations
T1 construct: gene DDX3X; helicase core, residues 132-607, recombinant, purified as previously described

Dbp2 = target: T2, Dbp2 (Saccharomyces cerevisiae, UniProt P24783, S161C); assay: RNA duplex unwinding assay; format: biochemical; conditions: covalent; 0.5 μM enzyme, 2 mM ATP/MgCl2, pH 7.5, 5 min pre-incubation
T2 construct: full-length, expressed in E. coli BL21 (DE3) as 6xHis-SUMO fusion, incubated with SUMO protease
T2 sequence (P24783 whole entry S161C, the tested form may be a part): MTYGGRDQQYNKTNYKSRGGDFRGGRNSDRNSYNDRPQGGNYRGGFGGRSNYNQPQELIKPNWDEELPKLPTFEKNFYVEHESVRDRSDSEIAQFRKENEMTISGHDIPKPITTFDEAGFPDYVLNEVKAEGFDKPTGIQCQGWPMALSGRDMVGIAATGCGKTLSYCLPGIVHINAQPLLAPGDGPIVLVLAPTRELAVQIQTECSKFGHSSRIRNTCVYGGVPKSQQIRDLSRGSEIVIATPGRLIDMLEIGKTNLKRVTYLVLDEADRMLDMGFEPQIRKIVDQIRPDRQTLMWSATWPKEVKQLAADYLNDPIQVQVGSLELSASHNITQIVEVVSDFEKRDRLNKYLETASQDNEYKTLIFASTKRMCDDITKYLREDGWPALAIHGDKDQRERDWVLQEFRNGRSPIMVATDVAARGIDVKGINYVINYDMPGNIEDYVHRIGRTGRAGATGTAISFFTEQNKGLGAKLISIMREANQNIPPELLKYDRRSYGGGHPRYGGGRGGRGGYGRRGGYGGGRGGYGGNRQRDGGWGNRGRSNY

HA-eIF4A^ES = target: T3, HA-eIF4A^ES (Saccharomyces cerevisiae, UniProt P10081); assay: competition of N-propargylmaleimide labelling, click TAMRA, in gel fluorescence after HA immunoprecipitation; format: biochemical; conditions: covalent; yeast lysate, 10 μM AMP-acrylate followed by 10 μM NPM
T3 construct: gene TIF1; HA-tagged ES mutant in yeast lysate, immunoprecipitated after labelling
T3 sequence (P10081 2-395): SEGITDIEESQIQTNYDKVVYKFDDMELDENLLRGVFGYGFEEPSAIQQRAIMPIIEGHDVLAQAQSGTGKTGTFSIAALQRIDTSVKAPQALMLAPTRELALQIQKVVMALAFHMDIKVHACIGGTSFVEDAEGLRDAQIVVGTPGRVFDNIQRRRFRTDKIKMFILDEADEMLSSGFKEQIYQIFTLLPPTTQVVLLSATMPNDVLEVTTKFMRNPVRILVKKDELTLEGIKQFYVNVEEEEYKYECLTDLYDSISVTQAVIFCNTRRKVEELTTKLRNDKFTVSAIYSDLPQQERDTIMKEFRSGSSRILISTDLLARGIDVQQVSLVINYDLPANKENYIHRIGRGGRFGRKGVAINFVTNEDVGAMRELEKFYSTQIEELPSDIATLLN

DDX3 (132-406) = target: T4, DDX3 (132-406) (Homo sapiens, UniProt O00571); assay: differential scanning fluorimetry; format: binding; conditions: saturating AMP; 4 μM protein, pH 7.5, 5 mM MgCl2
T4 construct: gene DDX3X; truncated, residues 132-406, recombinant, purified as previously described
T4 sequence (O00571 132-406): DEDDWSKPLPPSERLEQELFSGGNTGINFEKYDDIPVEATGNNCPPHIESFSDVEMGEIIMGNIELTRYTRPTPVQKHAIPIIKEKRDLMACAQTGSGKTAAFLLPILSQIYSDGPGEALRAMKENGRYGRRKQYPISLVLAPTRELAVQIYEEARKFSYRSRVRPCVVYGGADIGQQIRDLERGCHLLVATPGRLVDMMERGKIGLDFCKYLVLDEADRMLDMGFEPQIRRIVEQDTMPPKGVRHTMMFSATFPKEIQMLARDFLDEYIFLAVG

T1 sequence (O00571 132-607): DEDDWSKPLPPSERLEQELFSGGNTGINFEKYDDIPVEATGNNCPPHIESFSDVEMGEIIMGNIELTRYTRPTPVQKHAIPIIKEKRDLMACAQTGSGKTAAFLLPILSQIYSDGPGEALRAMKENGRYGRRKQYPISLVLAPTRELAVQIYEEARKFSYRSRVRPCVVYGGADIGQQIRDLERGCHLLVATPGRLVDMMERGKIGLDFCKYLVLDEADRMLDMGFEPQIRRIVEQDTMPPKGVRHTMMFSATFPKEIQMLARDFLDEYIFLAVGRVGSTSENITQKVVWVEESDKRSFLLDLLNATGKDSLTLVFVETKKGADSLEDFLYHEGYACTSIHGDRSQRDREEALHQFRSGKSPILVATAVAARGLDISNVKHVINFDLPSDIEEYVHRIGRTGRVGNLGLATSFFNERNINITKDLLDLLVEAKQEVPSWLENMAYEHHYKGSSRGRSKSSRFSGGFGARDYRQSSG

**Q.** For `Nc1ncnc2c1ncn2[C@@H]1O[C@H](COP(=O)(O)OP(=O)(O)OP(=O)(O)O)[C@@H](O)[C@H]1O` [ATP], which “coupled ATPase assay, RNA-dependent” value (DDX3 (132-607)) is on record?
**A.** The value was “both DDX3^WT and DDX3^ES hydrolyzed ATP in the presence of duplex RNA”.

**Q.** How did the “fraction of RNA duplex unwound” value (Dbp2) turn out when `C=CC(=O)OP(=O)(O)OC[C@H]1O[C@@H](n2cnc3c(N)ncnc32)[C@H](O)[C@@H]1O` [AMP-acrylate] was run?
**A.** Its value is “duplex unwinding by ES Dbp2 (S161C) is reduced by AMP-acrylate”.

**Q.** What about the NPM labeling (HA-eIF4A^ES) of the same compound?
**A.** Its NPM labeling is “labeling of HA-eIF4A^ES by NPM is competed by AMP-acrylate treatment”.

**Q.** Which Tm (DDX3 (132-406)) does the source give for `Nc1ncnc2c1ncn2[C@@H]1O[C@H](COP(=O)(O)O)[C@@H](O)[C@H]1O` [AMP] here?
**A.** Its Tm is “Saturating concentrations of AMP stabilizes DDX3^WT and DDX3^ES to the same extent”.
